According to US20130261077A1 (priority 2012, published 2013):

Biological target: T1, FimH-CRD (Escherichia coli, UniProt P08191)
T1 construct: The first 177 amino acids of the FimH protein; thrombin tag (printed as 'fusion protein with thrombin') (cleaved yes); made in house; host or cells: bacteria (pET21b plasmid)
Test: Competitive binding assay by fluorescence polarization, assay 1 (compounds prepared by manual serial dilution)
Experimental: The first 177 amino acids of the FimH protein were expressed as a fusion protein with thrombin in a pET21b plasmid in bacteria. This FimH protein sequence contains the carbohydrate recognition domain (CRD) and shall be termed FimH-CRD. Following bacterial expression of the protein, the FimH-CRD protein was purified to homogeneity and the thrombin tag removed by protease cleavage. A competitive binding assay by fluorescence polarization was performed using 5 nM of the Alexa 647 mannoside probe and 60 nM of the FimH-CRD. The samples are assayed in a low volume 384 well microtiter plate in a final volume of 20 μl. The final assay buffer conditions are the following, 50 mM Tris-Cl, ph 7.0, 100 mM NaCl, 1 mM EDTA, 5 mM β-mercaptoethanol, 0.05% BSA and 2.5% DMSO. Two assays are performed for FimH, termed assay 1 or assay 2. The assay conditions are the same for both assays except the following: assay 1 has compounds prepared by manual dilution in a serial dilution factor with 12-point dose response while assay 2 has compounds prepared by a robotics system also through a serial dilution factor (12 point dose response) and initially prepared in duplicate in 384 well-Corning polypropylene round bottom plates. The assay 2 plates have compound which is then frozen and must be thawed prior to use. Initially the Alexa 647 probe and the FimH-CRD are added to the assay buffer and then 0.5 μl of test compound (assay 1 or 2) between 0.4 nM to 75 μM final concentration are added (12 point titration with 3-fold serial dilution). Control wells for the Alexa 647 probe are prepared with the same conditions except for the addition of the FimH-CRD protein. Plates are then incubated for 5 hrs at room temperature in the dark and under humid conditions to prevent drying. Plates are read using the SpectraMax Paradigm multi-mode plate reader and the appropriate fluorescent polarization detection cartridge (Alexa-647).
Alexa 647 mannoside probe is prepared using the similar procedure reported for FAM mannoside (Han, Z. et. al., 2010, J. Med. Chem., 53, 4779) and is described in the scheme below.
To a blue colored stirred solution of (2S,3S,4S,5S,6R)-2-(4-aminobutoxy)-6-(hydroxymethyl)tetrahydropyran-3,4,5-triol (2.21 mg, 0.009 mmol) and the (2E)-2-[(2E,4E)-5-[3,3-dimethyl-5-sulfonato-1-(3-sulfonatopropyl)indol-1-ium-2-yl]penta-2,4-dienylidene]-3-[6-(2,5-dioxopyrrolidin-1-yl)oxy-6-oxo-hexyl]-3-methyl-1-(3-sulfonatopropyl)indoline-5-sulfonate (Potassium Ion (3)) (4.9 mg, 0.0044 mmol) in DMF (44 μL) is added Et3N (5.4 mg, 7.0 μL, 0.053 mmol) at RT. The solution is stirred at room temperature over night, concentrated, dissolved in water and purified on 12 g C-18 silica gel cartridge on Isolera system using acetonitrile in water (0 to 40%, 10 CV) and followed by lyophilization to afford Alexa 647 mannoside probe (3.3 mg, 34%) as deep blue solid.
The Kd values of the compounds are determined from dose response curves using twelve concentrations per compound in duplicate. Curves are fitted to data points using Fluorescence Polarization competitive displacement analysis, and Kds are interpolated from the resulting curves using GraphPad Prism software, version […] (GraphPad software Inc., San Diego, Calif., USA).

T1 sequence (P08191 22-177): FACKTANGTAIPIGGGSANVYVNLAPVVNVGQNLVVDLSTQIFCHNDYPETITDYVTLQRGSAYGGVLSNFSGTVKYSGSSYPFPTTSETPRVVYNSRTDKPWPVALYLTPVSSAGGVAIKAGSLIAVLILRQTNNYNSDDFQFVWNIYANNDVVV

SMILES	IC50 [nM]	Kd [nM]
OC[C@H]1O[C@H](c2cccc(O)c2)[C@@H](O)[C@@H](O)[C@@H]1O [Compound 1, (2R,3S,4R,5S,6R)-2-(hydroxymethyl)-6-(3-hydroxyphenyl)tetrahydropyran-3,4,5-triol]	53	12.3 ± 5.1
CNC(=O)c1ccc(-c2cccc([C@H]3O[C@H](CO)[C@@H](O)[C@H](O)[C@@H]3O)c2)cc1 [Compound 2, N-methyl-4-[3-[(2R,3S,4R,5S,6R)-3,4,5-trihydroxy-6-(hydroxymethyl)tetrahydropyran-2-yl]phenyl]benzamide]	29	< 5
CNC(=O)c1ccc(Oc2cccc([C@H]3O[C@H](CO)[C@@H](O)[C@H](O)[C@@H]3O)c2)cc1 [Compound 3, N-methyl-4-[3-[(2R,3S,4R,5S,6R)-3,4,5-trihydroxy-6-(hydroxymethyl)tetrahydropyran-2-yl]phenoxy]benzamide]	39	7.2 ± 1.1
CNC(=O)c1cccc(Oc2cccc([C@H]3O[C@H](CO)[C@@H](O)[C@H](O)[C@@H]3O)c2)c1 [Compound 5, N-methyl-3-[3-[(2R,3S,4R,5S,6R)-3,4,5-trihydroxy-6-(hydroxymethyl)tetrahydropyran-2-yl]phenoxy]benzamide]	18	< 5
Cc1ccc(-c2cccc([C@H]3O[C@H](CO)[C@@H](O)[C@H](O)[C@@H]3O)c2)cc1 [Compound 6, (2R,3S,4R,5S,6R)-2-(hydroxymethyl)-6-(4′-methyl-[1,1′-biphenyl]-3-yl)tetrahydro-2H-pyran-3,4,5-triol]	87	13.7 ± 7.7
CC(=O)Nc1cccc(-c2cccc([C@H]3O[C@H](CO)[C@@H](O)[C@H](O)[C@@H]3O)c2)c1 [Compound 7, N-[3-[3-[(2R,3S,4R,5S,6R)-3,4,5-trihydroxy-6-(hydroxymethyl)tetrahydropyran-2-yl]phenyl]phenyl]acetamide]	70	14.3 ± 9.1
OC[C@H]1O[C@H](c2cccc(-c3ccsc3)c2)[C@@H](O)[C@@H](O)[C@@H]1O [Compound 8, (2R,3S,4R,5S,6R)-2-(hydroxymethyl)-6-[3-(3-thienyl)phenyl]tetrahydropyran-3,4,5-triol]	155	40.1 ± 17.1
OC[C@H]1O[C@H](c2cccc(-c3cccnc3)c2)[C@@H](O)[C@@H](O)[C@@H]1O [Compound 9, (2R,3S,4R,5S,6R)-2-(hydroxymethyl)-6-[3-(3-pyridyl)phenyl]tetrahydropyran-3,4,5-triol]	163	28.5 ± 23.7
OC[C@H]1O[C@H](c2cccc(-c3ccc4c(c3)OCO4)c2)[C@@H](O)[C@@H](O)[C@@H]1O [Compound 11, (2R,3S,4R,5S,6R)-2-[3-(1,3-benzodioxol-5-yl)phenyl]-6-(hydroxymethyl)tetrahydropyran-3,4,5-triol]	88	11.9 ± 7.3
OCc1ccccc1-c1cccc([C@H]2O[C@H](CO)[C@@H](O)[C@H](O)[C@@H]2O)c1 [Compound 13, (2R,3S,4R,5S,6R)-2-(hydroxymethyl)-6-(2′-(hydroxymethyl)-[1,1′-biphenyl]-3-yl)tetrahydro-2H-pyran-3,4,5-triol]	195	39.9 ± 23.6
CN(C)Cc1ccccc1-c1cccc([C@H]2O[C@H](CO)[C@@H](O)[C@H](O)[C@@H]2O)c1 [Compound 14, (2R,3S,4R,5S,6R)-2-(2′-((dimethylamino)methyl)-[1,1′-biphenyl]-3-yl)-6-(hydroxymethyl)tetrahydro-2H-pyran-3,4,5-triol]	551	77.8 ± 70.4
OC[C@H]1O[C@H](c2cccc(-c3ccc4[nH]ccc4c3)c2)[C@@H](O)[C@@H](O)[C@@H]1O [Compound 15]	306	48.2 ± 47.7
Nc1cccc(-c2cccc([C@H]3O[C@H](CO)[C@@H](O)[C@H](O)[C@@H]3O)c2)c1 [Compound 16, (2R,3S,4R,5S,6R)-2-[3-(3-aminophenyl)phenyl]-6-(hydroxymethyl)tetrahydropyran-3,4,5-triol]	247	37 ± 33.7
OC[C@H]1O[C@H](c2cccc(-c3ccc4cc(O)ccc4c3)c2)[C@@H](O)[C@@H](O)[C@@H]1O [Compound 17, (2R,3S,4R,5S,6R)-2-(hydroxymethyl)-6-[3-(6-hydroxy-2-naphthyl)phenyl]tetrahydropyran-3,4,5-triol]	48	8.6 ± 2.5
Cn1nc(C(F)(F)F)cc1-c1cccc([C@H]2O[C@H](CO)[C@@H](O)[C@H](O)[C@@H]2O)c1 [Compound 18, (2R,3S,4R,5S,6R)-2-(hydroxymethyl)-6-(3-(1-methyl-3-(trifluoromethyl)-1H-pyrazol-5-yl)phenyl)tetrahydro-2H-pyran-3,4,5-triol]	160	33.7 ± 15.8
CCCOc1ccc(F)c(-c2cccc([C@H]3O[C@H](CO)[C@@H](O)[C@H](O)[C@@H]3O)c2)c1 [Compound 19]	52	6.2 ± 1.2
OC[C@H]1O[C@H](c2cccc(-c3ccc4c(c3)OCCO4)c2)[C@@H](O)[C@@H](O)[C@@H]1O [Compound 20, (2R,3S,4R,5S,6R)-2-(3-(2,3-dihydrobenzo[b][1,4]dioxin-6-yl)phenyl)-6-(hydroxymethyl)tetrahydro-2H-pyran-3,4,5-triol]	55	7.1 ± 2.4
CS(=O)(=O)c1ccc(-c2cccc([C@H]3O[C@H](CO)[C@@H](O)[C@H](O)[C@@H]3O)c2)cc1 [Compound 21]	92	12.3 ± 5.1
O=C(Nc1ccccc1)c1cccc([C@H]2O[C@H](CO)[C@@H](O)[C@H](O)[C@@H]2O)c1 [Compound 23, N-phenyl-3-[(2R,3S,4R,5S,6R)-3,4,5-trihydroxy-6-(hydroxymethyl)tetrahydropyran-2-yl]benzamide]	16	38.4 ± 23.6
Cc1cc(NC(=O)c2cccc([C@H]3O[C@H](CO)[C@@H](O)[C@H](O)[C@@H]3O)c2)n(Cc2ccccc2)n1 [Compound 24, N-(1-benzyl-3-methyl-1H-pyrazol-5-yl)-3-((2R,3S,4R,5S,6R)-3,4,5-trihydroxy-6-(hydroxymethyl)tetrahydro-2H-pyran-2-yl)benzamide]	243	56.7 ± 0.2
Cc1nnc(NC(=O)c2cccc([C@H]3O[C@H](CO)[C@@H](O)[C@H](O)[C@@H]3O)c2)s1 [Compound 25, N-(5-methyl-1,3,4-thiadiazol-2-yl)-3-((2R,3S,4R,5S,6R)-3,4,5-trihydroxy-6-(hydroxymethyl)tetrahydro-2H-pyran-2-yl)benzamide]	36	7 ± 0.5
O=C(Nc1ccc2ncccc2c1)c1cccc([C@H]2O[C@H](CO)[C@@H](O)[C@H](O)[C@@H]2O)c1 [Compound 26, N-(quinolin-6-yl)-3-((2R,3S,4R,5S,6R)-3,4,5-trihydroxy-6-(hydroxymethyl)tetrahydro-2H-pyran-2-yl)benzamide]	100	16.8 ± 7.8
O=C(Nc1ccc2[nH]ccc2c1)c1cccc([C@H]2O[C@H](CO)[C@@H](O)[C@H](O)[C@@H]2O)c1 [Compound 27, N-(1H-indol-5-yl)-3-((2R,3S,4R,5S,6R)-3,4,5-trihydroxy-6-(hydroxymethyl)tetrahydro-2H-pyran-2-yl)benzamide]	138	37 ± 3.1
Cc1cnc(NC(=O)c2cccc([C@H]3O[C@H](CO)[C@@H](O)[C@H](O)[C@@H]3O)c2)s1 [Compound 28, N-(5-methylthiazol-2-yl)-3-((2R,3S,4R,5S,6R)-3,4,5-trihydroxy-6-(hydroxymethyl)tetrahydro-2H-pyran-2-yl)benzamide]	56	16.7 ± 7.5
O=C(Nc1cccnc1)c1cccc([C@H]2O[C@H](CO)[C@@H](O)[C@H](O)[C@@H]2O)c1 [Compound 29, N-(pyridin-3-yl)-3-((2R,3S,4R,5S,6R)-3,4,5-trihydroxy-6-(hydroxymethyl)tetrahydro-2H-pyran-2-yl)benzamide]	59	18.1 ± 5.9
